Measured values: US20180000085A1, “USE OF PICOLINAMIDE COMPOUNDS WITH FUNGICIDAL ACTIVITY” (DOW AGROSCIENCES LLC, priority 2014, published 2018)

Key:
Type in all cases: in vivo
Settings in all cases: 100 ppm, 1 Day Protectant
Leptosphaeria nodorum = test: Wheat glume blotch (LEPTNO) disease control
Experimental: All fungicides were evaluated using the aforementioned method for their activity vs. all target diseases, unless stated otherwise. Wheat leaf blotch and brown rust activity were also evaluated using track spray applications, in which case the fungicides were formulated as EC formulations, containing 0.1% Trycol 5941 in the spray solutions. Wheat plants (variety Yuma) were grown from seed in a greenhouse in 50% mineral soil/50% soil-less Metro mix until the first leaf was fully emerged, with 7-10 seedlings per pot. These plants were inoculated with an aqueous spore suspension of Zymoseptoria tritici either prior to or after fungicide treatments. After inoculation the plants were kept in 100% relative humidity (one day in a dark dew chamber followed by two to three days in a lighted dew chamber at 20° C.) to permit spores to germinate and infect the leaf. The plants were then transferred to a greenhouse set at 20° C. for disease to develop. When disease symptoms were fully expressed on the 1st leaves of untreated plants, infection levels were assessed on a scale of 0 to 100 percent disease severity. Percent disease control was calculated using the ratio of disease severity on treated plants relative to untreated plants. Example C: Evaluation of Fungicidal Activity: Wheat Glume Blotch (Leptosphaeria nodorum; Bayer Code […]) Wheat plants (variety Yuma) were grown from seed in a greenhouse in 50% mineral soil/50% soil-less Metro mix until the first leaf was fully emerged, with 7-10 seedlings per pot. These plants were inoculated with an aqueous spore suspension of Leptosphaeria nodorum 24 hr after fungicide treatments. After inoculation the plants were kept in 100% relative humidity (one day in a dark dew chamber followed by two days in a lighted dew chamber at 20° C.) to permit spores to germinate and infect the leaf. The plants were then transferred to a greenhouse set at 20° C. for disease to develop. Fungicide formulation, application and disease assessment followed the procedures as described in the Example A.

Erysiphe cichoracearum = test: Powdery mildew of cucumber (ERYSCI) disease control
Experimental: All fungicides were evaluated using the aforementioned method for their activity vs. all target diseases, unless stated otherwise. Wheat leaf blotch and brown rust activity were also evaluated using track spray applications, in which case the fungicides were formulated as EC formulations, containing 0.1% Trycol 5941 in the spray solutions. Wheat plants (variety Yuma) were grown from seed in a greenhouse in 50% mineral soil/50% soil-less Metro mix until the first leaf was fully emerged, with 7-10 seedlings per pot. These plants were inoculated with an aqueous spore suspension of Zymoseptoria tritici either prior to or after fungicide treatments. After inoculation the plants were kept in 100% relative humidity (one day in a dark dew chamber followed by two to three days in a lighted dew chamber at 20° C.) to permit spores to germinate and infect the leaf. The plants were then transferred to a greenhouse set at 20° C. for disease to develop. When disease symptoms were fully expressed on the 1st leaves of untreated plants, infection levels were assessed on a scale of 0 to 100 percent disease severity. Percent disease control was calculated using the ratio of disease severity on treated plants relative to untreated plants. […] Plants were inoculated with a spore suspension 24 hr following fungicide treatments. After inoculation the plants remained in the greenhouse set at 20° C. until disease was fully expressed. Fungicide formulation, application and disease assessment on the sprayed leaves followed the procedures as described in the Example A.

Venturia inaequalis = test: Apple scab (VENTIN) disease control
Experimental: All fungicides were evaluated using the aforementioned method for their activity vs. all target diseases, unless stated otherwise. Wheat leaf blotch and brown rust activity were also evaluated using track spray applications, in which case the fungicides were formulated as EC formulations, containing 0.1% Trycol 5941 in the spray solutions. Wheat plants (variety Yuma) were grown from seed in a greenhouse in 50% mineral soil/50% soil-less Metro mix until the first leaf was fully emerged, with 7-10 seedlings per pot. These plants were inoculated with an aqueous spore suspension of Zymoseptoria tritici either prior to or after fungicide treatments. After inoculation the plants were kept in 100% relative humidity (one day in a dark dew chamber followed by two to three days in a lighted dew chamber at 20° C.) to permit spores to germinate and infect the leaf. The plants were then transferred to a greenhouse set at 20° C. for disease to develop. When disease symptoms were fully expressed on the 1st leaves of untreated plants, infection levels were assessed on a scale of 0 to 100 percent disease severity. Percent disease control was calculated using the ratio of disease severity on treated plants relative to untreated plants. […] Seedlings with two expanding young leaves at the top (older leaves at bottom of the plants were trimmed) were used in the test. Plants were inoculated with a spore suspension of Venturia inaequalis 24 hr after fungicide treatment and kept in a 22° C. dew chamber with 100% relative humidity for 48 hr, and then moved to a greenhouse set at 20° C. for disease to develop. Fungicide formulation, application and disease assessment on the sprayed leaves followed the procedures as described in the Example A.

| Structure (SMILES) | LEPTNO disease control, 1DP (Leptosphaeria nodorum) | ERYSCI disease control, 1DP (Erysiphe cichoracearum) | VENTIN disease control, 1DP (Venturia inaequalis) |
| --- | --- | --- | --- |
| CCCOC(CC)C(Oc1ccccc1)C(C)OC(=O)C(C)NC(=O)c1nccc(OC)c1OCOC(C)=O (centres unmarked) [Cmpd 446] | A (> 80) |  |  |
| COc1ccnc(C(=O)N[C@@H](C)C(=O)O[C@@H](C)[C@H](Oc2ccccc2)C(C)C)c1OCOC(C)=O [Cmpd 475] | A (> 80) | B (≤ 80) | A (> 80) |
| CC[C@@H](CCOC)[C@@H](Oc1ccccc1)[C@H](C)OC(=O)[C@H](C)NC(=O)c1nccc(OC)c1OCOC(C)=O [Cmpd 476] | A (> 80) | B (≤ 80) |  |
| CCC(CC)[C@@H](Oc1ccccc1)[C@H](C)OC(=O)[C@H](C)NC(=O)c1nccc(OC)c1OCOC(C)=O [Cmpd 477] | A (> 80) | A (> 80) | B (≤ 80) |
| COc1ccnc(C(=O)N[C@@H](C)C(=O)O[C@@H](C)[C@H](Oc2ccccc2)C(C)C)c1OC(C)=O [Cmpd 478] | A (> 80) | B (≤ 80) |  |
| CCC(CC)[C@@H](Oc1ccccc1)[C@H](C)OC(=O)[C@H](C)NC(=O)c1nccc(OC)c1OC(C)=O [Cmpd 479] | A (> 80) | A (> 80) | A (> 80) |
| CC[C@@H](CCOC)[C@@H](Oc1ccccc1)[C@H](C)OC(=O)[C@H](C)NC(=O)c1nccc(OC)c1OC(C)=O [Cmpd 482] | A (> 80) | B (≤ 80) |  |
| COc1ccnc(C(=O)N[C@@H](C)C(=O)O[C@@H](C)[C@H](Oc2ccccc2)c2ccccc2)c1OCOC(C)=O [Cmpd 500] | A (> 80) |  | B (≤ 80) |
| COc1ccnc(C(=O)N[C@@H](C)C(=O)O[C@H](C)[C@@H](Oc2ccccc2)c2ccccc2)c1OCOC(C)=O [Cmpd 547] |  |  | B (≤ 80) |
| COc1ccnc(C(=O)N[C@H](C)C(=O)O[C@H](C)[C@@H](Oc2ccccc2)C(C)C)c1OCOC(C)=O [Cmpd 548] |  |  | B (≤ 80) |
| COc1ccnc(C(=O)N[C@H](C)C(=O)O[C@H](C)[C@@H](Oc2ccccc2)c2ccccc2)c1OCOC(C)=O [Cmpd 549] |  |  | B (≤ 80) |
| COc1ccnc(C(=O)N[C@@H](C)C(=O)O[C@@H](C)[C@@H](Oc2ccccc2)C(C)C)c1OCOC(C)=O [Cmpd 552] |  |  | B (≤ 80) |
| COc1ccnc(C(=O)N[C@@H](C)C(=O)O[C@@H](C)[C@H](Oc2ccccc2)C2CCCC2)c1OCOC(C)=O [Cmpd 556] | A (> 80) |  | A (> 80) |
| COc1ccnc(C(=O)N[C@@H](C)C(=O)O[C@@H](C)[C@@H](CC(C)C)Oc2ccccc2)c1OCOC(C)=O [Cmpd 557] |  |  | B (≤ 80) |
| COc1ccnc(C(=O)N[C@H](C)C(=O)O[C@@H](C)[C@H](Oc2ccccc2)C(C)C)c1OCOC(C)=O [Cmpd 558] |  |  | B (≤ 80) |
| COc1ccnc(C(=O)N[C@H](C)C(=O)O[C@@H](C)[C@@H](Oc2ccccc2)C(C)C)c1OCOC(C)=O [Cmpd 559] |  |  | B (≤ 80) |
| COc1ccnc(C(=O)N[C@H](C)C(=O)O[C@H](C)[C@H](Oc2ccccc2)C(C)C)c1OCOC(C)=O [Cmpd 560] |  |  | B (≤ 80) |
| COc1ccnc(C(=O)N[C@@H](C)C(=O)O[C@@H](C)[C@H](Oc2cccc(Cl)c2)C(C)C)c1OC(C)=O [Cmpd 566] | A (> 80) |  |  |
| COc1ccnc(C(=O)N[C@@H](C)C(=O)O[C@@H](C)[C@H](Oc2cccc(F)c2)c2ccccc2)c1OCOC(C)=O [Cmpd 574] | A (> 80) |  |  |
| CCC(CC)[C@@H](Oc1ccc(F)cc1)[C@H](C)OC(=O)[C@H](C)NC(=O)c1nccc(OC)c1OCOC(C)=O [Cmpd 587] | A (> 80) |  |  |
| COc1ccnc(C(=O)N[C@@H](C)C(=O)O[C@@H](C)[C@H](Oc2cc(F)cc(Cl)c2)C(C)C)c1OCOC(C)=O [Cmpd 617] | A (> 80) |  |  |
| COc1ccnc(C(=O)N[C@@H](C)C(=O)O[C@@H](C)[C@H](Oc2cccc(Cl)c2)c2ccccc2)c1OCOC(C)=O [Cmpd 637] | B (≤ 80) |  |  |
| COc1ccnc(C(=O)N[C@@H](C)C(=O)O[C@@H](C)[C@H](Oc2ccccc2Cl)c2ccccc2)c1OC(C)=O [Cmpd 640] | A (> 80) |  |  |
| COc1ccnc(C(=O)N[C@@H](C)C(=O)O[C@@H](C)[C@H](Oc2cc(F)cc(Cl)c2)c2ccccc2)c1OC(C)=O [Cmpd 642] | A (> 80) |  | A (> 80) |
| CCC(C)C(Oc1ccccc1)C(C)OC(=O)C(C)NC(=O)c1nccc(OC)c1OC(C)=O (centres unmarked) [Cmpd 691] | A (> 80) |  |  |
| CCC(C)C(Oc1ccccc1)C(C)OC(=O)C(C)NC(=O)c1nccc(OC)c1OCOC(C)=O (centres unmarked) [Cmpd 692] | A (> 80) |  | B (≤ 80) |
| C=CC(C)C(Oc1ccccc1)C(C)OC(=O)C(C)NC(=O)c1nccc(OC)c1OCOC(C)=O (centres unmarked) [Cmpd 694] | A (> 80) |  | B (≤ 80) |
| CCC[C@@H](Oc1ccccc1)[C@H](C)OC(=O)[C@H](C)NC(=O)c1nccc(OC)c1OCOC(C)=O [Cmpd 699] | A (> 80) |  | B (≤ 80) |
| COc1ccnc(C(=O)N[C@@H](C)C(=O)O[C@@H](C)[C@@H](CC(C)C)Oc2ccccc2)c1OCOC(=O)C(C)C [Cmpd 1101] | B (≤ 80) |  |  |
